Reference: patent US11065355B2, “Device for monitoring efficacy of a decontamination process comprising a bacteria cell and method of using” (priority 2017, dated 2021)

Test system: M. terrae cells
Test: PAA time course, cell suspension testing of M. terrae cell resistance to high-level disinfection
Type: cell-based, Mycobacterium terrae ATCC 15755
Conditions: for Log Population / Log reduction / M. terrae Population: 850 ppm PAA, 30° C., 21 days growth culture
Description: Into a 50 ml polypropylene tube, pipet 0.85 ml of RAPICIDE Part A, 0.85 ml of RAPICIDE part B, and mix with 48.3 ml of distilled water. Vortex to mix thoroughly. Place tube in 30° C. water bath to equilibrate for at least 10 minutes before use.
PAA Time course: Exposure to PAA for various contact time points at 30° C. at the minimum effective concentration of RAPICIDE PAA (850 ppm). 10 μl of M. terrae cell samples at a target concentration of at least 1×10^8 cfu/mL were added to a 1.5 mL […] each sample in a 30° C. water bath. At the end of each contact time, samples were neutralized by adding 600 μL of 3% sodium thiosulfate with 0.05% Tween 80 for 15 mins at 30° C. Samples were centrifuged for 10 mins at 14000 rpm at 4 C. The supernatant was decanted off and samples were resuspended in 1 ml of BBL buffer. Serial dilutions (1:10) were made of each sample and 1 mL of each dilution was plated on Middlebrook 7H10 agar with Middlebrook OADC enrichment. Plates were incubated at 37° C. for 14-21 days.
The procedure of Example 1 was repeated using 21-days growth cells, with the M. terrae cells exposed to PAA instead of OPA.

CC(=O)OO [PAA, peracetic acid]
Log Population (exposure 1 seconds): 10.2 | Log reduction (exposure 1 seconds): 0.0 | M. terrae Population (exposure 1 seconds): 1.53E+10 CFU | Log Population (exposure 15 seconds): 9.5 | Log reduction (exposure 15 seconds): 0.7 | M. terrae Population (exposure 15 seconds): 3.45E+09 CFU | Log Population (exposure 30 seconds): 8.1 | Log reduction (exposure 30 seconds): 2.1 | M. terrae Population (exposure 30 seconds): 1.40E+08 CFU | Log Population (exposure 60 seconds): 7.3 | Log reduction (exposure 60 seconds): 2.9 | M. terrae Population (exposure 60 seconds): 2.00E+07 CFU | Log Population (exposure 90 seconds): 0 | Log reduction (exposure 90 seconds): 10.2 | M. terrae Population (exposure 90 seconds): 1.00E+00 CFU | Log Population (exposure 120 seconds): 0 | Log reduction (exposure 120 seconds): 10.2 | M. terrae Population (exposure 120 seconds): 1.00E+00 CFU | Log Population (exposure 150 seconds): 0 | Log reduction (exposure 150 seconds): 10.2 | M. terrae Population (exposure 150 seconds): 1.00E+00 CFU | Log Population (exposure 180 seconds): 0 | Log reduction (exposure 180 seconds): 10.2 | M. terrae Population (exposure 180 seconds): 1.00E+00 CFU | Log Population (exposure 210 seconds): 0 | Log reduction (exposure 210 seconds): 10.2 | M. terrae Population (exposure 210 seconds): 1.00E+00 CFU | Log Population (exposure 240 seconds): 0 | Log reduction (exposure 240 seconds): 10.2 | M. terrae Population (exposure 240 seconds): 1.00E+00 CFU | Log Population (exposure 270 seconds): 0 | Log reduction (exposure 270 seconds): 10.2 | M. terrae Population (exposure 270 seconds): 1.00E+00 CFU | Log Population (exposure 300 seconds): 0 | Log reduction (exposure 300 seconds): 10.2 | M. terrae Population (exposure 300 seconds): 1.00E+00 CFU | exposure to PAA for a 6 log reduction in M. terrae cells (PAA at 30° C., 21-days growth cells): about 75 seconds
